Experiments:
Androgen receptor = target: T1, Androgen receptor (Homo sapiens, UniProt P10275); experiment: Antagonist activity at Androgen receptor in human LNCaP cells expressing ARR2PB-eGFP incubated for 3 days by fluorescence based assay
T1 sequence (P10275 whole entry): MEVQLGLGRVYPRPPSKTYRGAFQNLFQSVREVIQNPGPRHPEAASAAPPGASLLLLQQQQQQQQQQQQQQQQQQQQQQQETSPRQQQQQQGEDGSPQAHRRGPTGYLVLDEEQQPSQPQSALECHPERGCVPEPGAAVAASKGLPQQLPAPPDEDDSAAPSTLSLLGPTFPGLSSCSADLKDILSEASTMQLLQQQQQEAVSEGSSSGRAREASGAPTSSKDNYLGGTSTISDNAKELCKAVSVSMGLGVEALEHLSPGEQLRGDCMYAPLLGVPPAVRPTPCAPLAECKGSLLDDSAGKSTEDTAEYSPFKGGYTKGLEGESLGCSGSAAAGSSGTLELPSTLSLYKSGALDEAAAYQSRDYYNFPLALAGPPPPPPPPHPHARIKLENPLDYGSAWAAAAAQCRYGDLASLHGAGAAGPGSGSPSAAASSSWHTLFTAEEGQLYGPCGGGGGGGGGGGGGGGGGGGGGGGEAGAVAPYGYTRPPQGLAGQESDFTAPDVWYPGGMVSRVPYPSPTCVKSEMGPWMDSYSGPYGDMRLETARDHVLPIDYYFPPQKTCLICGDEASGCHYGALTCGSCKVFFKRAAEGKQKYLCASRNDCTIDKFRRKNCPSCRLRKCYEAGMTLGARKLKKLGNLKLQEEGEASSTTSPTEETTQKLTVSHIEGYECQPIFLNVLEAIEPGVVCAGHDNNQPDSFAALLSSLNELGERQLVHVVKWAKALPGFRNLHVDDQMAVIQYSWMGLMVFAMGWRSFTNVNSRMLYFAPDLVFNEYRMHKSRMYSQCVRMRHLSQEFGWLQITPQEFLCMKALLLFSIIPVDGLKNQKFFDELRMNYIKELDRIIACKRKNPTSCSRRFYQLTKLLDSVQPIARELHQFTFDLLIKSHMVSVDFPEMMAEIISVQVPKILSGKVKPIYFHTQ

LNCaP = experiment: Antiproliferative activity against human LNCaP cells assessed as inhibition of cell proliferation incubated for 3 days by MTT assay; conditions: 72 h
[1] = Antiproliferative activity against mouse 3T3 cells incubated for 3 days by MTT assay; conditions: NIH3T3 cells
[2] = Antiproliferative activity against human LNCaP-EnzR cells assessed as inhibition of cell proliferation incubated for 3 days by MTT assay; conditions: 72 h

Compound `CC(=O)Cc1nsc(NC(=O)/C=C/c2ccc(C(F)(F)F)cc2)n1` has an IC50 (Androgen receptor) of 16 µM.
`CNC(=O)c1ccc(N2C(=S)N(c3ccc(C#N)c(C(F)(F)F)c3)C(=O)C2(C)C)cc1F` [ENZALUTAMIDE] gave an IC50 (LNCaP) of 15.8 µM, an IC50 at 3 days [1] of over 50 µM and an IC50 [2] of over 50 µM.

Reference: ChEMBL document CHEMBL6153085, “Discovery of N-(1,2,4-Thiadiazol-5-yl)benzo[b]oxepine-4-carboxamide Derivatives as Novel Antiresistance Androgen Receptor Antagonists” (J Med Chem, 2025)
